From publication PMC13372681, “A natural depsipeptide antibiotic binds the E-site of the bacterial ribosome” (Nature, 2026)
≈ marks a conversion by molar mass, not a printed value. Where two headings read alike, the source gives them in different places. Where a SMILES comes first, the peptide text is derived from it. Bridges are numbered along the chain shown (N, C = ends). [ ]: non-standard residue; d: D form. dOrn = NCCC[C@@H](N)C(=O)O

Key:
[1] = system: M. bovis BCG Pasteur ATCC 35734; settings: Middlebrook 7H9 + 10% OADC + 0.05% Tween-80
M. tuberculosis H37Ra = settings: Middlebrook 7H9 + 10% OADC + 0.05% Tween-80
S. aureus USA 300 = settings: broth microdilution, MHBII
E. coli C1508 = settings: broth microdilution, MDR clinical isolate
[2] = system: Lactobacillus plantarum GC4; test: MIC, anaerobic gut bacteria; assay type: cell-based; settings: gut isolate, BHI + L-cysteine, haemin, vitamin K, 37 °C
[3] = system: Candida albicans ATCC 90028
[4] = system: Bacteroides fragilis GC73; test: MIC, anaerobic gut bacteria; assay type: cell-based; settings: gut isolate, BHI + L-cysteine, haemin, vitamin K, 37 °C
E. coli C1507 = settings: broth microdilution, Ca+ MHB Medium; MDR clinical isolate
S. enterica ATCC 14028 = settings: broth microdilution, Ca+ MHB Medium
Blautia obeum GC925 = test: MIC, anaerobic gut bacteria; assay type: cell-based; settings: gut isolate, BHI + L-cysteine, haemin, vitamin K, 37 °C
[5] = system: Bifidobacterium breve GC96; test: MIC, anaerobic gut bacteria; assay type: cell-based; settings: gut isolate, BHI + L-cysteine, haemin, vitamin K, 37 °C
[6] = system: Clostridium perfringens GC1584; settings: gut isolate; BHI + L-cysteine, haemin, vitamin K, anaerobic, 37 °C
HEK293 cells = test: Mammalian cytotoxicity, Cell Titer Glo; assay type: cell-based, human; settings: 48 h exposure, DMEM + 10% FBS, 1% DMSO, Cell Titer Glo 2.0 luminescence
Experimental: (§1) Mammalian culture was performed in Dulbecco Modified Eagle Medium (DMEM) supplemented with 10% fetal bovine serum (FBS), 2 mM L-glutamine, 100 units ml^−1 penicillin and 100 µg ml^−1 streptomycin. HEK293 cells (ATCC CRL-1573; generation 6) were seeded at 7,500 cells per well and HepG2 cells (ATCC HB8065; generation 18) were seeded at 4,000 cells per well in 384-well tissue culture-treated white plates in 50 µl DMEM and incubated for 18 h at 37 °C in the presence of 5% CO2. After 18 h of incubation, 500 nl of the compound and DMSO (1% final concentration) were added to the cells using a Labcyte Echo acoustic dispenser (Beckman Coulter). Cells were further incubated for 48 h and after that cell viability was assessed using Promega Cell Titer Glo 2.0 reagent (Fisher Scientific). Before incubating the plates at room temperature for 10 min, 50 µl of Cell Titer Glo was added directly to the medium. The plates were then shaken for 2 min. The Neo2 plate reader (Biotek) was used to read the luminescence through luminescent fibre. Cells that were either not treated or solely treated with DMSO were used as a control.

HepG2 cells = test: Mammalian cytotoxicity, Cell Titer Glo; assay type: cell-based, human; settings: 48 h exposure, DMEM + 10% FBS, 1% DMSO, Cell Titer Glo 2.0 luminescence
Experimental: as §1

[7] = system: M. avium subsp. avium ATCC 25291; settings: Middlebrook 7H9 + 10% OADC + 0.05% Tween-80
in vivo = settings: female, ICR CD-1, mouse, plasma, sc; for level at 8 h / level at 24 h: below limit of quantification
[8] = mouse plasma 1:1 with PBS pH 7.4, 10 µM, 37 °C, 0–120 min, LC–MS, % remaining; duplicate, two biological replicates
Red blood cells (RBCs) = test: Haemolysis assay; assay type: cell-based; settings: human RBCs 1:50 in PBS pH 7.4, 37 °C, 1 h, absorbance 540 nm
Experimental: Human blood was obtained from BioIVT (USA). Red blood cells (RBCs) were separated from blood by centrifugation at 500g for 5 min. Plasma was removed and the RBCs were washed twice with 150 mM NaCl, using a volume equivalent to the removed plasma. After washing, phosphate-buffered saline (PBS) with a pH of 7.4, in a volume equal to the removed plasma, was added to create the RBC suspension. Using a Labcyte Echo acoustic dispenser (Beckman Coulter), 1 µl of the compound was added to the wells of a 96-well V-bottom plate. The final concentration of DMSO was kept at 1% (v/v), with a DMSO-only negative control included in each replicate. For the positive control, 10 µl of Triton X-100 was added, starting at a concentration of 20% and serially diluted twofold to 0.02%. RBCs were diluted 1:50 in PBS (pH 7.4), and 99 µl of this diluted solution was added to each well. The plates were incubated at 37 °C for 1 h, then centrifuged at 500g for 5 min to pellet the intact RBCs. Sixty-five microlitres of the supernatant was transferred to a clear, flat-bottom 96-well plate, and the absorbance was measured at 540 nm.

[9] = broth microdilution, Ca+ MHB Medium, MDR clinical isolate
[10] = broth microdilution, Ca+ MHB Medium
[11] = 50 mg/kg, Plasma concentration MKM, s.c. 50 mg/kg, Mouse 2
[12] = 50 mg/kg, Plasma concentration MKM, s.c. 50 mg/kg, Mouse 3
[13] = 50 mg/kg, Plasma concentration MKM, s.c. 50 mg/kg, Mouse 1

SMILES: C[C@@H](O)[C@@H]1NC(=O)[C@@H](CCCNC(=N)N)NC(=O)[C@@H](CCCNC(=N)N)NC(=O)[C@@H](CC(N)=O)NC(=O)[C@@H](NC(=O)[C@@H](Cc2ccccc2)NC(=O)[C@@H](CCCN)NC(=O)[C@H](N)CCCNC(=N)N)[C@@H](C)OC(=O)[C@H](Cc2c[nH]cn2)NC1=O [MKM-A, manikomycin] (H-[dR][dOrn][dF]T[dN][dR][dR]TH; ester 4-C)
- MIC (K. pneumoniae C1459; C1459): 8 µg/mL (≈ 6.76 µM)
- MIC (K. pneumoniae C1459; [9]): 32 µg/mL (≈ 27 µM)
- MIC [1]: 2 µg/mL
- MIC (M. tuberculosis H37Ra): 4 µg/mL
- MIC (S. aureus USA 300): 128 µg/mL (≈ 108 µM)
- MIC (A. baumanii ATCC 17978; ATCC 17978): 64 µg/mL (≈ 54.1 µM)
- MIC (A. baumanii ATCC 17978; [10]): >128 µg/mL
- MIC (E. coli C1508; Ca+ MHB Medium): 32 µg/mL (≈ 27 µM)
- MIC (E. coli C1508; MOPS Minimal Medium): 16 µg/mL (≈ 13.5 µM)
- MIC (E. coli C1508; RPMI Medium): 4 µg/mL (≈ 3.38 µM)
- MIC [2]: >256 µg/mL
- MIC [3]: >64 µg/mL
- MIC [4]: >256 µg/mL
- MIC (E. coli C1507): 32 µg/mL (≈ 27 µM)
- MIC (S. enterica ATCC 14028): 32 µg/mL (≈ 27 µM)
- MIC (Blautia obeum GC925): >256 µg/mL
- MIC [5]: 256 µg/mL
- MIC [6]: >256 µg/mL
- MIC (P. aeruginosa PAO1; PAO1): >64 µg/mL
- MIC (P. aeruginosa PAO1; [10]): >128 µg/mL
- MIC (P. aeruginosa PAO1; broth microdilution, MOPS Minimal Medium): >128 µg/mL
- MIC (E. coli BW25113; BW25113): 4 µg/mL (≈ 3.38 µM)
- MIC (E. coli BW25113; broth microdilution, Ca+ MHB Medium (cation-adjusted MHB)): 32 µg/mL (≈ 27 µM)
- HEK 293 (IC50) (HEK293 cells): >256 µg/mL
- HepG2 (IC50) (HepG2 cells): >256 µg/mL
- MIC (E. coli C0617; C0617): 8 µg/mL (≈ 6.76 µM)
- MIC (E. coli C0617; [9]): 32 µg/mL (≈ 27 µM)
- MIC [7]: 32 µg/mL
- Cmax (in vivo; 50 mg kg^−1): 9130 ng/mL
- half-life (in vivo; 50 mg kg^−1): ~36 min
- level at 0.25 h (in vivo; 50 mg/kg, Plasma concentration MKM, s.c. 50 mg/kg, Mouse 1, linear range 1.6–50 µg/ml): 6650 ng/mL
- level at 0.25 h (in vivo; [11]): 8580 ng/mL
- level at 0.25 h (in vivo; [12]): 9540 ng/mL
- level at 0.5 h (in vivo; 50 mg/kg, Plasma concentration MKM, s.c. 50 mg/kg, Time 0.5 (h), Mouse 3): 9170 ng/mL
- level at 1 h (in vivo; [13]): 6890 ng/mL
- level at 1 h (in vivo; [11]): 9080 ng/mL
- level at 1 h (in vivo; [12]): 6930 ng/mL
- level at 2 h (in vivo; [13]): 1470 ng/mL
- level at 2 h (in vivo; [11]): 1060 ng/mL
- level at 2 h (in vivo; [12]): 2600 ng/mL
- level at 8 h (in vivo; [13]): 386 ng/mL
- level at 8 h (in vivo; [11]): 55.8 ng/mL
- level at 8 h (in vivo; [12]): 108 ng/mL
- level at 24 h (in vivo; [13]): 71.5 ng/mL
- level at 24 h (in vivo; [11]): 27.3 ng/mL
- level at 24 h (in vivo; [12]): 68 ng/mL
- stability in plasma [8]: excellent stability
- MIC (S. aureus ATCC 29213): 64 µg/mL (≈ 54.1 µM)
- Haemolysis (256 μg/ml) (Red blood cells (RBCs)): <1%
